According to patent publication US11491117B2, “Compounds for the prevention and treatment of glucose intolerance related conditions and obesity” (SORBONNE UNIVERSITÉ, priority 2017, dated 2022):

Columns and labels:
pancreas gene expression = experiment: Quantitative RT-PCR in pancreas of chronically treated GK rats; assay type: in vivo, rat
Experimental: (§1) RNA was extracted from pancreas, adipose tissue and liver using the RNeasy RNA Mini Kit (Qiagen, Courtaboeuf, France). Reverse transcription was performed from a 20 μL reaction mixture with 500 ng RNA using M-MLV reverse transcriptase kit (ThermoFisher, Villebon, France). Quantitative RT-PCR was performed using sequence specific primers and the MESA green kit for SYBR green assays (Eurogentec, Angers, France). We used 18S and/or cyclophilin house keeping genes to normalize relative quantification of mRNA levels using the Livak and […] methods ([…], 2001).

Goto-Kakizaki (GK) rats = experiment: Pancreas histology and immunohistochemistry of chronically treated GK rats; assay type: in vivo, rat
Experimental: Pancreas sections were labeled either with Hematoxylin-Eosin and Immunohistochemistry to determine insulin positive area (FIG. 9F) and treated with Ki 67 and DAPI to stain and quantify proliferative nuclei (FIG. 9G). […] All measures are from 6 rats per group. Data were analyzed using the unpaired Mann-Whitney test. […] Tissues were drop-fixed in 4% paraformaldehyde (Sigma-Aldrich, Saint Quentin Fallavier, France) immediately after collection and put through an automated carousel processor for dehydration, clearing, and paraffin embedding (Leica, Nanterre, France). Sections were prepared for liver (6 μm), pancreas (6 μm) and adipose tissue ([…]) and mounted on slides (DPX polymerizing mountant, Sigma-Aldrich, Saint Quentin Fallavier, France). Hematoxylin and Eosin (H&E) was used to evaluate tissue morphology. Epitope-specific antibodies were used for immunohistochemistry detection of insulin on pancreas sections (Dako, Saint Aubin, France). […] Quantitative expression of all immunostainings was performed using positive pixels algorithm (Indica Labs, Corrales, N. Mex.). […] Results are expressed as percentage of positive pixels, within islets where indicated. The quantification method is an automated observer-independent process based on section scanning and application of publicly available algorithms. […]

[1] = test system: adipose tissue gene expression; experiment: Quantitative RT-PCR in retroperitoneal fat pads of chronically treated mice; assay type: in vivo, mouse
Experimental: as §1, with “Transcript abundance of key genes regulating adipose tissue biology was tested by quantitative RT-PCR in retroperitoneal fat pads of mice fed control chow diet (CHD) or high fat diet (HFD). Data were analyzed using the unpaired Mann-Whitney test. […] RNA was” for “RNA was”

isolated mouse islets = experiment: Incubation of isolated mouse islets: insulin release, insulin content, Ki67 proliferation; assay type: cell-based

Cc1ccc(O)cc1 [4-cresol]
stimulatory effects on expression of Sirt1, Ins1, Hnf1α, IL10 and Vegfa in pancreas (pancreas gene expression; GK rats): replicated | pancreatic expression of ERα (pancreas gene expression; GK rats in vivo): does not regulate significantly | DYRK1A pancreatic transcription (pancreas gene expression; GK rats, chronic treatment): significant downregulation | expression of genes encoding amylase, IL6 and Tnf in pancreas (pancreas gene expression; GK rats, differences to saline not statistically significant): strongly altered | cell proliferation (Ki 67 labeling) in pancreas (Goto-Kakizaki (GK) rats): increased cell proliferation | insulin positive area (Goto-Kakizaki (GK) rats): significant increase | Ucp1 expression in adipose tissue ([1]; CHD fed mice): markedly downregulated | expression of Sirt1, Cav2, Hsl and Pnpla2 (Atg1) in adipose tissue ([1]; CHD fed mice): significantly stimulated | Ucp1 expression in adipose tissue ([1]; HFD-fed mice, vs HFD saline and CHD 4-cresol): significantly downregulated | expression of Hsl and Pnpla2 in adipose tissue ([1]; HFD-fed mice, vs saline treated fat fed mice): significantly upregulated | islet cell proliferation (KI67) (isolated mouse islets; 10 nM): significant effect | increase in insulin release under basal condition (isolated mouse islets; 10 nM, 2.8 mM glucose): +17.3% | stimulation of insulin secretion in response to glucose (isolated mouse islets; 10 nM, glucose 16.6 mM, p=0.06): +25.8% | increase in islet insulin content (isolated mouse islets; 10 nM, p<0.05): +33.7% | insulin production, secretion and content (isolated mouse islets; 100 nM): no effect
